Laboratory results from patent US9745275B2, “Pain-related compound and medical composition” (KYOTO UNIVERSITY, priority 2013, dated 2017).

Key:
Format in all cases: in vivo, mouse
[1] = tested on: carrageenan-induced inflammatory pain model mice; experiment: latency of withdrawal reflex to thermal stimulation (thermal hyperalgesia) in carrageenan-induced inflammatory pain model mice; conditions: given 6 h after carrageenan; for suppression of thermal hyperalgesia: intrathecal, examined over three hours (compound 2: 0.1, 1 or 10 pmol)
Description: Before and after carrageenan (2%, 25 μl) was subcutaneously administered to a one-side hind limb sole of each mouse (male, C57BL/6J, ([…]), thermal stimulation was applied, and latency of a withdrawal reflex behavior of the hind limb was measured. The appearance of the phenomenon of thermal hyperalgesia due to carrageenan was checked over six hours after the administration, and thereafter, the compound 1 or a solvent used for dissolution (veh.) was administered orally (1 pmol or 10 pmol per 1 g of the mouse body). Effects were examined over two hours thereafter. The results are illustrated in FIG. 2.
Before and after carrageenan (2%, 25 μl) was subcutaneously administered to a one-side hind limb sole of each mouse (male, C57BL/6J, 6 to 8 weeks old), mechanical stimulation or thermal stimulation was applied, and threshold (mechanical stimulation) and latency (thermal stimulation) of a withdrawal reflex behavior of the hind limb were measured. The appearance of the phenomenon of mechanical allodynia or the appearance of thermal hyperalgesia due to carrageenan was checked over six hours after the administration, and thereafter, the compound 2 was administered intrathecally (0.1 pmol, 1 pmol, or 10 pmol). Effects were examined over three hours thereafter. The solution of the compound 2 was prepared by dissolving the compound 2 in 99% DMSO, and diluting the same with physiological saline solution (0.2% DMSO in physiological saline solution).
Before and after carrageenan (2%, 25 μl) was subcutaneously administered to a one-side hind limb sole of each mouse (male, C57BL/6J, 6 to 8 weeks old), mechanical stimulation or thermal stimulation was applied, and threshold (mechanical stimulation) and latency (thermal stimulation) of a withdrawal reflex behavior of the hind limb were measured. The appearance of the phenomenon of mechanical allodynia or the appearance of the thermal hyperalgesia due to carrageenan was checked over six hours after the administration, and thereafter, the compound 4 was administered intrathecally. Effects were examined over three hours thereafter. The solution of the compound 4 was prepared by dissolving the […] in 99% DMSO, and diluting the same with physiological saline solution (0.2% DMSO in physiological saline solution). The results are illustrated in FIG. 5.
Before and after carrageenan (2%, 25 μl) was subcutaneously administered to a one-side hind limb sole of each mouse (male, C57BL/6J, 6 to 8 weeks old), thermal stimulation was applied, and latency of a withdrawal reflex behavior of the hind limb was measured. The appearance of the phenomenon of thermal hyperalgesia due to carrageenan was checked over six hours after the administration, and thereafter, the compound 5 was administered intrathecally. Effects were examined over three hours thereafter. The solution of the compound 5 was prepared by dissolving the compound 5 in 99% DMSO, and diluting the same with physiological saline solution (0.2% DMSO in physiological saline solution). The results are illustrated in FIG. 6.
Before and after carrageenan (2%, 25 μl) was subcutaneously administered to a one-side hind limb sole of each mouse (male, C57BL/6J, 6 to 8 weeks old), thermal stimulation was applied, and latency of a withdrawal reflex behavior of the hind limb was measured. […]

[2] = tested on: carrageenan-induced inflammatory pain model mice; experiment: von Frey test with simultaneous administration of compound and opioid antagonist in carrageenan-induced inflammatory pain model mice; conditions: intraperitoneal, compound 1 nmol/g plus opioid antagonist 20 nmol/g, 7 h after carrageenan, evaluated at 1 h and 3 h
Description: Carrageenan was subcutaneously injected to a hind limb sole of each mouse, and seven hours later, the compound 1 and an opioid antagonist were simultaneously administered intraperitoneally. At one hour after the administration and at three hours after the administration, therapeutic effects with respect to mechanical allodynia were evaluated. Specific conditions were as follows.
Mouse: C57B116J, male, 8 weeks old
Induction of pain: Pain was induced by subcutaneously injecting 20 μL of physiological saline solution containing 2% λ-carrageenan to a hind limb sole.
Administration of therapeutic agent: 1% Tween80 (trademark) physiological saline solution containing 2% DMSO in which the compound 1 and an opioid antagonist described below were dissolved was administered intraperitoneally, in an amount of 0.01 mL per 1 g of the body weight (about 0.2 mL of the solution was administered per one mouse). The compound 1 was prepared so as to be 1 nmol per 1 g of the body weight of the mouse. The opioid antagonist was prepared so as to be 20 nmol per 1g of the body weight of the mouse.
Opioid antagonist MNTX: Methylnaltrexone bromide Antagonist selective to a […]. Unable to pass through the blood-brain barrier.
Opioid antagonist NAL-M: Naloxone methioclide Antagonist not selective to an opioid receptor. Unable to pass through the blood-brain barrier. […]

[3] = tested on: carrageenan-induced inflammatory pain model mice; experiment: von Frey test, mechanical allodynia in carrageenan-induced inflammatory pain model mice; conditions: for threshold of withdrawal reflex behavior to mechanical stimulation (FIG. 3A, FIG. 5A): intrathecal, given 6 h after carrageenan, examined over three hours (compound 2: 0.1, 1 or 10 pmol)
Description: After subcutaneous plantar administration of carrageenan, acute inflammation develops over several hours, which causes a phenomenon of hypersensitivity to mechanical stimulation and thermal stimulation. A therapeutic agent containing the compound 1 as an active ingredient was administered to each of model mice of this carrageenan-induced inflammatory pain, and pain was evaluated.
More specifically, at seven hours after carrageenan was subcutaneously administered to a hind limb sole of each mouse (male, C57BL/6J, 6 to 8 weeks old), the compound 1 was administered orally, and at one hour after the administration of the compound 1, therapeutic effects thereof with respect to mechanical allodynia were determined. Specific conditions are as follows.
Mouse: C57BL/6J, male, 8 weeks old, n =4 (each foot, n=8) Induction of pain: 25 μL of physiological saline solution containing 2% of λ-carrageenan was injected subcutaneously to hind limb soles, so that pain was induced. […]
Evaluation of pain: Evaluation was performed by von Frey test. More specifically, a hind limb sole of the mouse was mechanically stimulated with tips of von-Frey filaments having a variety of thicknesses, and a load of stimulation at which the mouse initiated a withdrawal behavior was determined. […]
(§1) Before and after carrageenan (2%, 25 μl) was subcutaneously administered to a one-side hind limb sole of each mouse (male, C57BL/6J, 6 to 8 weeks old), mechanical stimulation or thermal stimulation was applied, and threshold (mechanical stimulation) and latency (thermal stimulation) of a withdrawal reflex behavior of the hind limb were measured. […]
as §1

[4] = tested on: complete Freund's adjuvant-induced inflammatory pain model mice; experiment: threshold of withdrawal reflex to mechanical stimulation in complete Freund's adjuvant-induced inflammatory pain model mice; conditions: intrathecal, three days after CFA, examined over three hours
Description: Subcutaneous plantar administration of complete Freund's adjuvant (CFA) caused prolonged inflammation, which was more persistent than the inflammation caused in the carrageenan models, and this caused phenomena of hypersensitivity to mechanical stimulation and thermal stimulation. Using these CFA model mice, pain therapy effects of the compound 3 were evaluated. Before and after CFA (25 μl) was subcutaneously administered to a one-side hind limb sole of each mouse (male, C57BL/6J, 6 to 8 weeks old), mechanical stimulation was applied, and threshold of a withdrawal reflex behavior of the hind limb was measured. The appearance of the phenomenon of mechanical allodynia due to CFA was checked three days after the administration, and the compound 3 was administered intrathecally. Effects were examined over three hours thereafter. The solution of the compound 3 was prepared by dissolving the compound 3 in 99% DMSO, and diluting the same with physiological saline solution (0.2% DMSO in physiological saline solution). The results are illustrated in FIG. 4.

Compound	suppression of thermal hyperalgesia [1]	threshold of withdrawal reflex behavior to mechanical stimulation (FIG. 3A, FIG. 5A) [3]	further results
CCN1/C(=C/C(C)=O)Sc2ccc(F)cc21 [compound 1, (1Z)-1-(3-ethyl-5-fluoro-2(3H)-benzothiazolylidene)-2-propanone]			therapeutic effect on thermal hyperalgesia (latency of withdrawal reflex to thermal stimulation), FIG. 2 ([1]; oral, 1 pmol or 10 pmol per 1 g of mouse body, examined over two hours): significantly reduced; analgesic action on mechanical allodynia with simultaneous opioid antagonist (MNTX or NAL-M), FIG. 8 [2]: hindered by a peripheral opioid antagonist; therapeutic effect on mechanical allodynia (threshold load of withdrawal behavior, von Frey filaments), FIG. 1 ([3]; oral, 1 nmol per 1 g body weight, 7 h after carrageenan, evaluated 1 h after administration, C57BL/6J male mice): significantly reduced
CCN1/C(=C/C(C)=O)Sc2ccc(OC)cc21 [compound 2]	significantly reduced	significantly reduced	
CCN1/C(=C/C(C)=O)Sc2cc(OC)ccc21 [compound 3, (1Z)-1-(3-ethyl-6-methoxy-2(3H)-benzothiazoylidene)-2-propanone]			threshold of withdrawal reflex behavior to mechanical stimulation, FIG. 4 [4]: significantly suppressed
CCN1/C(=C/C(C)=O)Sc2c(OC)cccc21 [compound 4]	significantly suppressed	significantly suppressed	
CCN1/C(=C/C(C)=O)Sc2ccc(Br)cc21 [compound 5, (1Z)-1-(5-bromo-3-ethyl-2(3H)-benzothiazoylidene)-2-propanone]	significantly suppressed		
CCN1/C(=C/C(C)=O)Sc2ccc(Cl)cc21 [compound 6, (1Z)-1-(5-chloro-3-ethyl-2(3H)-benzothiazoylidene)propan-2-one]	significantly suppressed		
